Data: article PMC3005307 (Chemistry & biology, 2010)
Entries after “also recorded” stand apart in the source; their conditions may differ.

Tests used:
TcdB holotoxin [1] = format: cell-based, human
TcdB CPD = TcdB CPD (Clostridioides difficile, UniProt P18177); format: biochemical, Clostridium difficile; conditions: autocleavage assay
TcdB holotoxin [2] = format: cell-based, human; remark: listed apart in the source

Chain of TcdB CPD (P18177 1-804 limits assumed): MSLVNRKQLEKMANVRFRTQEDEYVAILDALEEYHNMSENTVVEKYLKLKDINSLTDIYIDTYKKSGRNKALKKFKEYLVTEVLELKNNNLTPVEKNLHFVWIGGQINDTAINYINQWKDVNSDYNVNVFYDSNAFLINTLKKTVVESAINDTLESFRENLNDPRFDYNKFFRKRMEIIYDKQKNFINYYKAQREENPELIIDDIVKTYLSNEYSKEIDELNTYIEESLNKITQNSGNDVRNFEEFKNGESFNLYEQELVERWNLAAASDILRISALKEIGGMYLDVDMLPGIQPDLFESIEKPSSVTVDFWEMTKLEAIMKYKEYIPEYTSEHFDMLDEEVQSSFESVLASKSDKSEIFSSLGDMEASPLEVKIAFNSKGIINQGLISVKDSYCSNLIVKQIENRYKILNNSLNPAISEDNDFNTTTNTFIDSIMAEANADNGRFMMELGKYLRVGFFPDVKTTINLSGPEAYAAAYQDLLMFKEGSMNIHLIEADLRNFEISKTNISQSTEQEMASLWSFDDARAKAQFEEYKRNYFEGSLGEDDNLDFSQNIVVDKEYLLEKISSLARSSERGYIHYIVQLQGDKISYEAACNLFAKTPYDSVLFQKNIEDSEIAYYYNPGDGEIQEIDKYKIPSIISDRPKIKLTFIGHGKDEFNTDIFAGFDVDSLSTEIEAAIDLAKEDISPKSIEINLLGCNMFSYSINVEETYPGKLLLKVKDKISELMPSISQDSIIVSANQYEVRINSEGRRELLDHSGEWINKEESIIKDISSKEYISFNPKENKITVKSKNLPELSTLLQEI

JPM-OEt was tested, and the “effect on holotoxin-mediated cell rounding” value (TcdB holotoxin [1]) was “failed to inhibit toxin function; also recorded: no effect on toxin function”, the “inhibition of CPD activity” value (TcdB CPD) was “poorly inhibit CPD activity” and the “effect on Rac1 glucosylation by holotoxin” value (TcdB holotoxin [2]) was “no effect on toxin function”.
